Results taken from patent US20260199510A1, “AN ANTIBODY-DRUG CONJUGATE HAVING TWO OR MORE FUNCTIONAL SMALL MOLECULE COMPOUNDS FOR ENHANCED TREATMENT OF REFRACTORY DISEASES” (priority 2023, published 2026).

Legend:
Type in all cases: cell-based
[1] = system: C4-2B cells; test: MTT assay of B7H3-ADCs against C4-2B tumor cells; conditions: 6000 cells, 96 h incubation
[2] = system: PC3-4H7 cells; test: MTT assay of B7H3-ADCs against PC3-4H7 tumor cells; conditions: 6000 cells, 96 h incubation
Text: Parent cell line PC-3 from Nanjing Cobioer Biosciences Co., was introduced with plasmid coexpress both human PSMA and RFP-Neomycin fusion protein and plasmid coexpress human Steap1 and GFP-Blasticidin fusion protein. The high expression cells were selected by neomycin and Blasticidin, and the selected clone 4H7 having high expression of both PSMA and Steapl was verified by FACs and chosen for further use in vitro and in vivo study.
The cell lines used in the cytotoxicity assays were: C4-2B Cells which was obtained from ATCC through license agreement with MD Anderson Cancer Center, Houston, TX, USA. 22RV1, U87, NCI-N87, MKN-7, JIMT-1, SU86.86, SW1990, OVCAR-3, Calu-3, A431, AsPC-1, HCC827 and H1975 cells were purchased from ATCC, Nanjing Cobioer and The Cell Bank of Shanghai Institute of Biochemistry and Cell Biology, and the others. C4-2B and PC-3-4H7 are both Steap1 and PSMA antigen high express cells, but medium expressed of both B7H3 and DLL3 antigens. 22RV1 is low express cells for Steapl, PSMA, B7H3 and DLL3 antigens. U87 is glioblastoma (GBM) cells, NCI-N87 and MKN-7 cell line are stable models of the gastric epithelium. […] After it was shaken for 15 min, the absorbance was measured at 490 nm and 570 nm with a reference filter of 620 nm. The inhibition % was calculated according to the following equation: inhibition % =[1-(assay-blank)/(control-blank)]x 100.

[3] = system: 22RV1 cells; test: MTT assay of B7H3-ADCs against 22RV1 tumor cells; conditions: Homo sapiens, 6000 cells, 96 h incubation
[4] = system: NCI-N87 cells; test: MTT assay of BsHer2-ADCs against NCI-N87 cells; conditions: Homo sapiens, BsHer2 (trastuzumab/pertuzumab)-ADCs, 5000 cells, 96 h incubation
[5] = system: MKN-7 cells; test: MTT assay of BsHer2-ADCs against MKN-7 cells; conditions: Homo sapiens, BsHer2 (trastuzumab/pertuzumab)-ADCs, 5000 cells, 96 h incubation
[6] = system: SW1990 cells; test: MTT assay of BsHer2-ADCs against SW1990 cells; conditions: Homo sapiens, BsHer2 (trastuzumab/pertuzumab)-ADCs, 5000 cells, 96 h incubation
[7] = system: SU86.86 cells; test: MTT assay of BsHer2-ADCs against SU86.86 cells; conditions: Homo sapiens, SU.86.86, BsHer2 (trastuzumab/pertuzumab)-ADCs, 5000 cells, 96 h incubation

## CC(=O)O[C@H]1C(=O)[C@@]2(C)[C@H]([C@H](OC(=O)c3ccccc3)[C@]3(O)C[C@H](OC(=O)[C@H](O)[C@@H](NC(=O)c4ccccc4)c4ccccc4)C(C)=C1C3(C)C)[C@]1(OC(C)=O)CO[C@@H]1C[C@@H]2O [Paclitaxel]
[1]
  IC50: 1.59 nM
[2]
  IC50: 2.03 nM
[3]
  IC50: 1.85 nM
[4]
  IC50: 0.76 nM
[5]
  IC50: 10.2 nM
[6]
  IC50: 0.042 nM
[7]
  IC50: 2.98 nM
